ChEMBL document CHEMBL1201862, “PubChem BioAssay data set” (2004)
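How tested: cells in 96-well plates exposed to compound for 48 hours at five concentrations. Here, GI50 denotes the concentration required for 50% inhibition of growth.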 Active and inactive are the calls of the source. Cut-off read from the data, not from the text of the source: active = GI50 up to about 1.1 µM and inactive = higher.

Columns and labels:
Assay in all cases: NCI anticancer screen, dose series, 48 h
[1] = system: 786-0
[2] = system: BT-549
[3] = system: EKVX
[4] = system: HCC 2998
[5] = system: HOP-62
[6] = system: Hs-578T
[7] = system: IGROV-1
[8] = system: KM12
[9] = system: LOX IMVI
[10] = system: MDA-MB-231
[11] = system: MDA-MB-435
[12] = system: NCI-H23
[13] = system: OVCAR-4
[14] = system: OVCAR-8
[15] = system: RPMI-8226
[16] = system: SF-268
[17] = system: SNB-75
[18] = system: SW-620
[19] = system: T47D
[20] = system: UACC-257

Measured: GI50

COc1ccc2c(c1O)[C@@]13CCCC=C1[C@@H](C2)N(C)CC3
inactive: [1] > 100 µM | [2] 34 µM | [3] > 100 µM | [4] > 100 µM | [5] > 100 µM | [6] 42.5 µM | [7] > 100 µM | [8] > 100 µM | [9] 41.4 µM | [10] 77.6 µM | [11] 36.6 µM | [12] 89.1 µM | [13] > 100 µM | [14] > 100 µM | [15] 29.3 µM | [16] > 100 µM | [17] 36.7 µM | [18] 69.3 µM | [19] 90.2 µM | [20] > 100 µM

CCOc1nnnc2[nH]cnc12
inactive: [1] > 100 µM | [2] > 100 µM | [3] > 100 µM | [4] > 100 µM | [5] > 100 µM | [6] > 100 µM | [7] > 100 µM | [8] > 100 µM | [9] > 100 µM | [10] > 100 µM | [11] > 100 µM | [12] > 100 µM | [13] > 100 µM | [14] > 100 µM | [15] > 100 µM | [16] > 100 µM | [17] > 100 µM | [18] > 100 µM | [19] > 100 µM | [20] > 100 µM

Cc1coc2c1CC1OC1(C)CCC1OC1(C)C2 (stereo not given)
inactive: [1] > 100 µM | [2] > 100 µM | [3] > 100 µM | [4] > 100 µM | [5] > 100 µM | [6] > 100 µM | [7] > 100 µM | [8] > 100 µM | [9] > 100 µM | [10] > 100 µM | [11] > 100 µM | [12] > 100 µM | [13] > 100 µM | [14] > 100 µM | [15] > 100 µM | [16] > 100 µM | [17] > 100 µM | [18] > 100 µM | [19] > 100 µM | [20] > 100 µM
